Test results as given in US6087401A, “Cyclopentenones, process for preparing the same, and the use thereof” (Takara Shuzo Co., Ltd., priority 1996, dated 2000).
Where two headings read alike, the source gives them in different places.

Experiments:
[1] = system: Escherichia coli HB101 (ATCC 33694); assay: growth turbidity, microorganism (13); assay type: cell-based; details: 8 h, control 222
Description: (§1) They were testing microorganism (13): Escherichia coli HB101 (ATCC 33694); testing microorganism (14): Salmonella typhimurium LT-2 (ATCC 27106); testing microorganism (15): Pseudomonas aeruginosa (IFO 3080); testing microorganism (16): Staphylococcus aureus 3A (NCTC 8319); testing microorganism (17): Bacillus subtilis (IFO 3034); and testing microorganism (18): Streptococcus mutans (GS5; stored at National Institute of Health).
(§2) The testing microorganisms were subjected to a seed culture overnight in an L-broth (1% tryptone, 0.5% yeast extract and […]; pH 7.0). The seed culture (5 μl) was inoculated to a medium to which 25-200 μg/ml of cyclopentenone was added to 5 ml of L-both and also to a medium to which nothing was added and a shake incubation was conducted at 37° C. to measure the growth. At the initiation of the incubation and also at eight hours thereafter, turbidity of the culture was measured using a Fuji Digital Turbidimeter (sold from Fuji Kogyo KK; manufactured by Akiyama Denki Seisakusho) under the condition that the adjusted scale was 82.3 and the growth of the tested microorganism was measured from the value (growth turbidity) obtained by deducting the turbidity at the initiation of incubation from that after eight hours. Incidentally, in the case of the testing microorganism (18), a brain heart infusion was used instead of L-broth.

[2] = system: Salmonella typhimurium LT-2 (ATCC 27106); assay: growth turbidity, microorganism (14); assay type: cell-based; details: 8 h, control 273
Description: as §1, §2

[3] = system: Pseudomonas aeruginosa (IFO 3080); assay: growth turbidity, microorganism (15); assay type: cell-based; details: 8 h, control 239
Description: as §1, §2

[4] = system: Staphylococcus aureus 3A (NCTC 8319); assay: growth turbidity, microorganism (16); assay type: cell-based; details: 8 h, control 243
Description: as §1, §2

Sarcoma-180 = assay: life-prolonging effect, intraperitoneal Sarcoma-180; assay type: in vivo, female mice of ICR strain; details: intraperitoneal tumor
IMC = assay: life-prolonging effect, IMC; assay type: in vivo, female mice of CDF1 strain; details: intraperitoneal tumor
EAC = assay: life-prolonging effect, EAC; assay type: in vivo, female mice of DDY strain; details: intraperitoneal tumor
[5] = 25 days
mice = details: oral, 100 mg/kg

In the case of `O=C1C=CC(O)C1O` (centres unmarked) [the cyclopentenone, 4,5-dihydroxy-2-cyclopenten-1-one], the “Growth Turbidity” value ([1]; 25 μg/ml) is reported as 0, the “Growth Turbidity” value ([1]; 50 μg/ml) is reported as 0 and the “Growth Turbidity” value ([1]; 100 μg/ml) is reported as 0. For the same compound, the “Growth Turbidity” value ([1]; 200 μg/ml) was 0, the “Growth Turbidity” value ([2]; 100 μg/ml) was 0 and the “Growth Turbidity” value ([2]; 200 μg/ml) was 0. The “Growth Turbidity” value ([3]; 25 μg/ml) was 2, the “Growth Turbidity” value ([3]; 50 μg/ml) was 0 and the “Growth Turbidity” value ([3]; 100 μg/ml) was 0. The “Growth Turbidity” value ([3]; 200 μg/ml) was 0, the “Growth Turbidity” value ([4]; 25 μg/ml) was 203 and the “Growth Turbidity” value ([4]; 50 μg/ml) was 158. For the same compound, the “Growth Turbidity” value ([4]; 100 μg/ml) was 0, the “Growth Turbidity” value ([4]; 200 μg/ml) was 0 and the “increase in life span” value (Sarcoma-180) was 148%. The mean survival days (Sarcoma-180; control 22.6 days) was 33.4 days, the “increase in life span” value (IMC) was 188% and the mean survival days (IMC; control 10.8 days) was 20.3 days. For the same compound, the “increase in life span” value (EAC) was 255%, the mean survival days (EAC; control 15.8 days) was 40.3 days and the “storage stability (amount of the cyclopentenone)” value ([5]; 4° C. and -20° C.) was “almost stable”. For the same compound, the “storage stability (amount of the cyclopentenone)” value ([5]; 37° C.) was “some decrease” and the toxicity (mice) was “not show toxicity”.
